According to patent US9687453B2, “Solid pharmaceutical composition” (KYORIN PHARMACEUTICAL CO., LTD., priority 2013, dated 2017):

Test: pH of acidic substance (2.5% liquid in water, pH meter)
Type: physicochemical
Settings: 50 mg in 1,950 μL of water (concentration 2.5%)
Description: The “acidic substance” described herein is a substance which is dissolved in water to generate hydrogen ions.

pH: ≤ 3.5
Compound: Cl.N[C@@H](CCC(=O)O)C(=O)O [L-glutamic acid hydrochloride]
